Measurements from patent US20230365526A1, “PYRIDAZINE DERIVATIVES FOR MODULATING NUCLEIC ACID SPLICING” (REMIX THERAPEUTICS INC., priority 2020, published 2023).
Counter-ions that a name gives are not always drawn. Like-named read-outs stand apart in the source and are kept apart here.

Key:
Format in all cases: cell-based
HTT mRNA = experiment: RT-qPCR splicing assay monitoring HTT canonical (CJ) and alternative (AJ) junction mRNA in A673 or K562 cells; conditions: 24 hours compound treatment, top dose 10 uM
Protocol: (§1) Compounds described herein were used to modulate RNA transcript abundance in cells. The expression of a target mRNA was measured by detecting the formation of an exon-exon junction in the canonical transcript (CJ). A compound mediated exon-inclusion event was detected by observing an increase in formation of a new junction with an alternative exon (AJ). Real-time qPCR assays were used to detect these splicing switches and interrogate the potency of various compounds towards different target genes. A high-throughput real time quantitative PCR (RT-qPCR) assay was developed to measure these two isoforms of the mRNA (CJ and AJ) for an exemplary gene, HTT, together with a control housekeeping gene, GAPDH or GUSB or PPIA, used for normalization. Briefly, the A673 or K562 cell line was treated with various compounds described herein (e.g., compounds of Formula (I)). After treatment, the levels of the HTT mRNA targets were determined from each sample of cell lysate by cDNA synthesis followed by qPCR.
• Cells-to-CT 1-step kit: ThermoFisher A25602, Cells-to-CT lysis reagent: ThermoFisher 4391851C, TaqMan™ Fast Virus 1-Step Master Mix: ThermoFisher 4444436 • GAPDH: VIC-PL, ThermoFisher 4326317E (Assay: Hs99999905_m1)—used for K562/suspension cell lines • GUSB: VIC-PL, ThermoFisher 4326320E (Assay: Hs99999908_m1)—used for K562/suspension cell lines • PPIA: VIC-PL, ThermoFisher 4326316E (Assay: Hs99999904_m1)—used for A673/adherent cell lines
(§2) The A673 cell line was cultured in DMEM with 10% FBS. Cells were diluted with full growth media and plated in a 96-well plate (15,000 cells in 100 ul media per well). The plate was incubated at 37° C. with 5% CO2 for 24 hours to allow cells to adhere. An 11-point 3-fold serial dilution of the compounds was made in DMSO then diluted in media in an intermediate plate. Compounds were transferred from the intermediate plate to the cell plate with the top dose at a final concentration of 10 uM in the well. Final DMSO concentration was kept at or below 0.25%. The cell plate was returned to the incubator at 37° C. with 5% CO2 for an additional 24 hours.
(§3) The K562 cell line was cultured in IMDM with 10% FBS. For K562, cells were diluted with full growth media and plated in either a 96-well plate (50,000 cells in 50 uL media per well) or a 384-well plate (8,000-40,000 cells in 45 uL media per well). An 11-point 3-fold serial dilution of the compounds were made in DMSO then diluted in media in an intermediate plate. Compound was transferred from the intermediate plate to the cell plate with the top dose at a final concentration of 10 uM in the well. Final DMSO concentration was kept at or below 0.25%. Final volume was 100 uL for 96-well plate and 50 uL for 384-well plate. The cell plate was then placed in an incubator at 37° C. with 5% CO2 for 24 hours.
(§4) The cells were then gently washed with 50 uL-100 uL cold PBS before proceeding to addition of lysis buffer. 30 uL-50 uL of room temperature lysis buffer with DNAse I (and optionally RNAsin) was added to each well. Cells were shaken/mixed thoroughly at room temperature for 5-10 minutes for lysis to take place and then 3 uL-5 uL of room temperature stop solution was added and wells were shaken/mixed again. After 2-5 minutes, the cell lysate plate was transferred to ice for RT-qPCR reaction setup. The lysates could also be frozen at −80° C. for later use.
In some cases, a direct lysis buffer was used. An appropriate volume of 3×lysis buffer (10 mM Tris, 150 mM NaCl, 1.5%-2.5% Igepal and 0.1-1 U/uL RNAsin, pH 7.4) was directly added to either K562 or A673 cells in media and mixed by pipetting 3 times. The plates were then incubated at room temperature with shaking/rocking for 20-50 minutes to allow for lysis to take place. After this time, the cell lysate plate was transferred to ice to set up for the RT-qPCR reactions. The lysates could also be frozen at −80° C. for later use. […]

HTT = experiment: Gene panel canonical junction RT-qPCR assay: HTT; conditions: read-out: HTT (IC50, decrease in CJ mRNA levels)
Protocol: as §1, §2, §3, §4
(§5) In some cases, a direct lysis buffer was used. An appropriate volume of 3×lysis buffer (10 mM Tris, 150 mM NaCl, 1.5%-2.5% Igepal and 0.1-1 U/uL RNAsin, pH 7.4) was directly added to either K562 or A673 cells in media and mixed by pipetting 3 times. The plates were then incubated at room temperature with shaking/rocking for 20-50 minutes to allow for lysis to take place. After this time, the cell lysate plate was transferred to ice to set up for the RT-qPCR reactions. The lysates could also be frozen at −80° C. for later use.
(§6) To set up 10 uL RT-qPCR reactions, cell lysates were transferred to 384-well qPCR plates containing the master mix according to the table below. The plates were sealed, gently vortexed, and spun down before the run. The volumes were adjusted accordingly in some instances where the reaction was carried in 20 uL. The table below summarizes the components of the RT-qPCR reactions:
(§7) The RT-qPCR reaction was performed using a QuantStudio (ThermoFisher) under the following fast cycling conditions. […]

Target C = experiment: Gene panel canonical junction RT-qPCR assay: Target C; conditions: read-out: Target C (IC50, decrease in CJ mRNA levels)
Protocol: as §1, §2, §3, §4, §5, §6, §7

[1] = decrease in CJ mRNA, read-out: HTT CJ AC50
[2] = increase in AJ mRNA, read-out: HTT AJ AC50

SMILES | AC50 (HTT mRNA; [1]) [nM] | AC50 (HTT mRNA; [2]) [nM] | IC50 (HTT) [nM] | IC50 (Target C) [nM]
C[C@@H]1C[C@H](N(C)c2ccc(-c3ccc(-c4cn[nH]c4)c(=O)[nH]3)nn2)CCN1 [Compound 126, 6-(6-[methyl[(2R,4R)-2-methylpiperidin-4-yl]amino]pyridazin-3-yl)-3-(1H-pyrazol-4-yl)-1H-pyridin-2-one] | > 10000 | > 10000 |  | 
CN(c1ccc(-c2ccc(-c3cn[nH]c3)c(=O)[nH]2)nn1)[C@@H]1C[C@H]2CC[C@@H](C1)N2 [Compound 129, 6-[6-[(1R,3S,5S)-8-azabicyclo[3.2.1]octan-3-yl(methyl)amino]pyridazin-3-yl]-3-(1H-pyrazol-4-yl)-1H-pyridin-2-one] | 1000 to 10000 | 1000 to 10000 |  | 
COc1nc(-c2ccc(N(C)[C@H]3CCN[C@@H](C)C3)nn2)ccc1-n1cccn1 [Compound 135, 6-[6-methoxy-5-(pyrazol-1-yl)pyridin-2-yl]-N-methyl-N-[(2S,4S)-2-methylpiperidin-4-yl]pyridazin-3-amine] | > 10000 | > 10000 | > 10000 | < 100
CN(c1ccc(-c2ccc(-c3cn[nH]c3)c(C(F)(F)F)n2)nn1)[C@@H]1C[C@H]2CC[C@@H](C1)N2 [Compound 236] | > 10000 | > 10000 | > 10000 | > 10000
COc1nc(-c2ccc(OC3CC(C)(C)NC(C)(C)C3)nn2)ccc1-c1cn[nH]c1 [Compound 244, 3-[6-methoxy-5-(1H-pyrazol-4-yl)pyridin-2-yl]-6-[(2,2,6,6-tetramethylpiperidin-4-yl)oxy] pyridazine] | 100 to 1000 | 100 to 1000 | < 100 | 100 to 1000
COc1nc(-c2ccc(OC3CC(C)(C)NC(C)(C)C3)nn2)ccc1-c1cnn(C)c1 [Compound 245, 3-[6-methoxy-5-(1-methylpyrazol-4-yl)pyridin-2-yl]-6-[(2,2,6,6-tetramethylpiperidin-4-yl)oxy]pyridazine] | 100 to 1000 | 100 to 1000 | < 100 | 100 to 1000
COc1nc(-c2ccc(N(C)C3CC(C)(C)NC(C)(C)C3)nn2)ccc1-c1cn[nH]c1 [Compound 246, 6-[6-methoxy-5-(1H-pyrazol-4-yl)pyridin-2-yl]-N-methyl-N-(2,2,6,6-tetramethylpiperidin-4-yl)pyridazin-3-amine] | < 100 | 100 to 1000 | < 100 | 100 to 1000
COc1nc(-c2ccc(N(C)C3CC(C)(C)NC(C)(C)C3)nn2)ccc1-c1cnn(C)c1 [Compound 247, 6-[6-methoxy-5-(1-methylpyrazol-4-yl)pyridin-2-yl]-N-methyl-N-(2,2,6,6-tetramethylpiperidin-4-yl)pyridazin-3-amine] | 100 to 1000 | 100 to 1000 | < 100 | 100 to 1000
COc1cc(-c2ccc(N(C)[C@@H]3C[C@H]4CC[C@@H](C3)N4)nn2)ncc1-c1cn[nH]c1 [Compound 248] | > 10000 | > 10000 | > 10000 | > 10000
CN(c1ccc(-c2ccc(-c3cn[nH]c3)c(F)n2)nn1)[C@@H]1C[C@H]2CC[C@@H](C1)N2 [Compound 249, (1R,3R,5S)—N-{6-[6-fluoro-5-(1H-pyrazol-4-yl)pyridin-2-yl]pyridazin-3-yl}-N-methyl-8-azabicyclo[3.2.1]octan-3-amine hydrochloride] | < 100 | < 100 | < 100 | < 100
CN(c1ccc(-c2ccc(-c3cn[nH]c3)c(Cl)n2)nn1)[C@@H]1C[C@H]2CC[C@@H](C1)N2 [Compound 250, (exo)-N-{6-[6-chloro-5-(1H-pyrazol-4-yl)pyridin-2-yl]pyridazin-3-yl}-N-methyl-8-azabicyclo[3.2.1]octan-3-amine] | < 100 | < 100 | < 100 | 100 to 1000
COc1nc(-c2ccc(NC3CCNCC3)nn2)ccc1-c1cnn(C)c1 [Compound 257, 6-[6-methoxy-5-(1-methylpyrazol-4-yl)pyridin-2-yl]-N-(piperidin-4-yl)pyridazin-3-amine] | 1000 to 10000 | 1000 to 10000 | 1000 to 10000 | 1000 to 10000
COc1nc(-c2ccc(OC3CC(C)(C)NC(C)(C)C3)nn2)ccc1-c1cnn(C)n1 [Compound 258, 3-[6-methoxy-5-(2-methyl-1,2,3-triazol-4-yl)pyridin-2-yl]-6-[(2,2,6,6-tetramethylpiperidin-4-yl)oxy]pyridazine] | 100 to 1000 | 1000 to 10000 | 100 to 1000 | 1000 to 10000
COc1nc(-c2ccc(N(C)C3CC(C)(C)NC(C)(C)C3)nn2)ccc1-c1cnn(C)n1 [Compound 259] | 100 to 1000 | 1000 to 10000 | 100 to 1000 | 100 to 1000
COc1nc(-c2ccc(N(C)[C@@H]3C[C@H]4CC[C@@H](C3)N4)nn2)cnc1-c1cn[nH]c1 [Compound 260, (1R,3R,5S)—N-{6-[6-methoxy-5-(1H-pyrazol-4-yl)pyrazin-2-yl]pyridazin-3-yl}-N-methyl-8-azabicyclo [3.2.1] octan-3-amine hydrochloride] | 100 to 1000 | 100 to 1000 | < 100 | < 100
CCOc1nc(-c2ccc(N(C)[C@@H]3C[C@H]4CC[C@@H](C3)N4)nn2)ccc1-c1cn[nH]c1 [Compound 261, (1R,3R,5S)—N-{6-[6-ethoxy-5-(1H-pyrazol-4-yl)pyridin-2-yl]pyridazin-3-yl}-N-methyl-8-azabicyclo[3.2.1]octan-3-amine] | < 100 | < 100 | < 100 | < 100
CN(c1ccc(-c2ccc(-c3cn[nH]c3)c(C#N)n2)nn1)[C@@H]1C[C@H]2CC[C@@H](C1)N2 [Compound 262, 6-{6-[(1R,3R,5S)-8-azabicyclo[3.2.1]octan-3-yl(methyl)amino]pyridazin-3-yl}-3-(1H-pyrazol-4-yl)pyridine-2-carbonitrile] | < 100 | 100 to 1000 | < 100 | < 100
COc1nc(-c2ccc(N(C)[C@@H]3C[C@H]4CC[C@@H](C3)N4)nn2)cc(F)c1-c1cn[nH]c1 [Compound 268, (exo)-N-{6-[4-fluoro-6-methoxy-5-(1H-pyrazol-4-yl)pyridin-2-yl]pyridazin-3-yl}-N-methyl-8-azabicyclo[3.2.1]octan-3-amine] | < 100 | < 100 | < 100 | < 100
